Key:
[1] = test system: metastatic breast cancer cell lines (MDA-MB-231); set-up: method as in PMID 21158420; details: cited from earlier work
[2] = LogD, octanol:PBS 1:1 at pH 7.4 (LC-MS/MS); type: physicochemical; details: octanol:PBS 1:1 at pH 7.4, 2 h at room temperature, triplicate
Method: To determine compound LogD, 10 mM of the compound 44 in DMSO was diluted 50-fold in a mixture of 1:1 octanol:PBS at pH 7.4. The mixture was gently shaken for 2 h at room temperature. Each sample was then diluted 50-fold in MeOH before LC-MS/MS analysis. For each compound, the test was performed in triplicate. LogD was determined as the logarithm of the ratio of product concentrations in octanol and PBS, respectively, determined by mass signals.

[3] = Aqueous solubility in PBS at pH 7.4 (LC-MS/MS, AUC PBS/AUC MeOH x 200); type: physicochemical; details: aqueous buffer, kinetic from dmso stock; PBS at pH 7.4, 24 h shaking at room temperature, triplicate
Method: To determine compound solubility, 10 mM of the compound 44 in DMSO was diluted 50-fold either in PBS at pH 7.4 or in organic MeOH solvent in PP tubes (n = 3 for PBS and […]). The tubes were gently shaken for 24 h at room temperature. Then, the three PBS tubes and three of the six methanol tubes were centrifuged for 5 min at 4000 rpm and filtered over 0.45 μm filters (Millex-LH Millipore). The sample was diluted 50-fold in MeOH before LC-MS/MS analysis. The test was performed in triplicate. The solubility was determined by the following ratio: (AUCPBS/AUCMeOH) × 200.

| SMILES | activity against the proliferation of metastatic breast cancer cell lines [1] | logD at 2 h [2] | solubility at 24 h [3] |
| --- | --- | --- | --- |
| C=C1CCC2C(C)(C)CCCC23C(=O)OCC13 (stereo not drawn) [Antrocin] | significant activity |  |  |
| CC(C)[C@H]1CO[C@]23CCNC[C@H]2CCC(=O)N13 [Compound 44, (3S,7aR,11aR)-3-isopropyl-3,6,7,7a,8,9,10,11-octahydro-2H-oxazolo[2,3-j][1,6]naphthyridin-5-one;formic acid] |  | -1.72 | > 200 µM |
